This note sets out measurements from article PMC9551036, “A selective and orally bioavailable VHL-recruiting PROTAC achieves SMARCA2 degradation in vivo” (Nature Communications, 2022).

The structures appear in SMILES notation. Values after ≈ are worked out from the molar mass of the structure shown. Values joined by “and” are separate entries in the source; they are usually repeats but may differ in a detail not shown here. Equal values may be shown once. Read-outs that look alike come from different tables or passages of the source.

In general, solubility refers to the concentration that dissolves in the medium under given conditions. The EC50 is the concentration that produces a half-maximal response. One may read the Kd as the equilibrium constant for the complex coming apart.

The nature of one data set: Solubility testing. The data set is classed as physicochemical. To be noted: buffer, kinetic from dmso stock. How it is done: Dilution into a 1:1 mixture of acetonitrile and water was used as reference. After 24 h, the incubations were filtrated, and the filtrate was analyzed by LC-UV.
Data set [1] has as its target T1, PBRM1BD5 (Homo sapiens, UniProt P40337+Q86U86).
T1 construct: GST (TEV site) (N); His6 (TEV site) (N, cleaved yes); made in house; host or cells: PBRM1^BD5: Escherichia coli BL21(DE3)
The experiment in a line: TR-FRET ternary complex affinity and cooperativity, PBRM1. The data set is classed as binding. To be noted: TR-FRET competition for PBRM1BD5, + VCB; mean ± SD; read-out: TR-FRET Ternary PBRM1BD EC50 (PROTAC + VCB). (In general: In TR-FRET formats the signal depends on donor and acceptor labels being close together.)

In data set [2] the test system is PBRM1BD5. The description is as above. It is filed as binding. To be noted: ratio TR-FRET EC50 / TR-FRET EC50 +VCB measured in the same run, PBRM1BD5.
Another data set deals with SMARCA2 (Homo sapiens, UniProt P51531). Nature of the data set: SMARCA2 capillary electrophoresis protein assay in other cell lines (A549, NCI-H1568, HCT116, LU99, HCC-364, HCT-15, HCC4006, SK-N-AS). The data set is classed as cell-based. Also on record: endogenous in cells; host or cells: RKO, NCI-H1568, A549, HCT116, LU99, HCC-364, HCT-15, HCC4006, SK-N-AS. The essentials: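 Cells were treated with compound for 4 or 18 h. Half-life was followed with 50 µg/ml cycloheximide for 1–24 h, and re-synthesis with 100 nM compound 6 for 4 h, then VHL binder at 25 or 50 µM for 3 or 24 h. SMARCA2/4 was quantified by Wes capillary immunoassay, normalised to GAPDH, with 4-parameter logistic fits.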

Data set [3] deals with VCB: PROTAC: SMARCA2^BD ternary complex (Homo sapiens, UniProt P40337+P51531). The experiment in a line: SPR ternary complex measurement, VCB immobilised, 10 µM SMARCA2^BD present. It is filed as binding. Details: P51531-2, residues 1373-1493 with additional N-terminal SM residues; His6 (TEV site) (N, cleaved yes); GST (TEV site) (N, cleaved yes); made in house; host or cells: SMARCA2^BD: Escherichia coli BL21(DE3). The conditions noted are these: for Kd: SPR. The essentials: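 Biotinylated VCB immobilised on a CM5 chip; ternary binding run at 6 °C in 20 mM Tris pH 8.3, 150 mM KCl, 2 mM MgCl2, 2 mM TCEP, 0.005% Tween 20, 1% DMSO. Dual-inject mode with 10 µM SMARCA bromodomain present during injection and dissociation. Kinetics/affinity from global 1:1 fit with mass-transport term.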
VCB: PROTAC: SMARCA2^BD ternary complex, sequence (P40337 54-213): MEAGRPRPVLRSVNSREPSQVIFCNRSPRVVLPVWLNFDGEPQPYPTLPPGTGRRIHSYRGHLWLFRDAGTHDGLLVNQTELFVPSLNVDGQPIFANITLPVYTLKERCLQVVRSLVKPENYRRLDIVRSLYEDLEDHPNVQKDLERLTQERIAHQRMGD
VCB: PROTAC: SMARCA2^BD ternary complex, sequence (Q15369 17-112 partner limits assumed): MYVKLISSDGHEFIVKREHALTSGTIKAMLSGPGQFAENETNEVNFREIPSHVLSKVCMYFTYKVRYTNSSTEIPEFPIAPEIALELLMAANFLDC
VCB: PROTAC: SMARCA2^BD ternary complex, sequence (Q15370 1-104 partner limits assumed): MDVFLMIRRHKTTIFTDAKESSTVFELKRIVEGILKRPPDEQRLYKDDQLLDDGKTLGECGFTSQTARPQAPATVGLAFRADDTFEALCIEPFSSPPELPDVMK
VCB: PROTAC: SMARCA2^BD ternary complex, sequence (P51531 1373-1493 isoform P51531-2): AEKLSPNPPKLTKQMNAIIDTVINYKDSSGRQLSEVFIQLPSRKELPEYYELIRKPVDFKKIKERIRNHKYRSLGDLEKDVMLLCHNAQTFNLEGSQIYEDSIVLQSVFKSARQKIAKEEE

SMARCA2, sequence (P51531 whole entry): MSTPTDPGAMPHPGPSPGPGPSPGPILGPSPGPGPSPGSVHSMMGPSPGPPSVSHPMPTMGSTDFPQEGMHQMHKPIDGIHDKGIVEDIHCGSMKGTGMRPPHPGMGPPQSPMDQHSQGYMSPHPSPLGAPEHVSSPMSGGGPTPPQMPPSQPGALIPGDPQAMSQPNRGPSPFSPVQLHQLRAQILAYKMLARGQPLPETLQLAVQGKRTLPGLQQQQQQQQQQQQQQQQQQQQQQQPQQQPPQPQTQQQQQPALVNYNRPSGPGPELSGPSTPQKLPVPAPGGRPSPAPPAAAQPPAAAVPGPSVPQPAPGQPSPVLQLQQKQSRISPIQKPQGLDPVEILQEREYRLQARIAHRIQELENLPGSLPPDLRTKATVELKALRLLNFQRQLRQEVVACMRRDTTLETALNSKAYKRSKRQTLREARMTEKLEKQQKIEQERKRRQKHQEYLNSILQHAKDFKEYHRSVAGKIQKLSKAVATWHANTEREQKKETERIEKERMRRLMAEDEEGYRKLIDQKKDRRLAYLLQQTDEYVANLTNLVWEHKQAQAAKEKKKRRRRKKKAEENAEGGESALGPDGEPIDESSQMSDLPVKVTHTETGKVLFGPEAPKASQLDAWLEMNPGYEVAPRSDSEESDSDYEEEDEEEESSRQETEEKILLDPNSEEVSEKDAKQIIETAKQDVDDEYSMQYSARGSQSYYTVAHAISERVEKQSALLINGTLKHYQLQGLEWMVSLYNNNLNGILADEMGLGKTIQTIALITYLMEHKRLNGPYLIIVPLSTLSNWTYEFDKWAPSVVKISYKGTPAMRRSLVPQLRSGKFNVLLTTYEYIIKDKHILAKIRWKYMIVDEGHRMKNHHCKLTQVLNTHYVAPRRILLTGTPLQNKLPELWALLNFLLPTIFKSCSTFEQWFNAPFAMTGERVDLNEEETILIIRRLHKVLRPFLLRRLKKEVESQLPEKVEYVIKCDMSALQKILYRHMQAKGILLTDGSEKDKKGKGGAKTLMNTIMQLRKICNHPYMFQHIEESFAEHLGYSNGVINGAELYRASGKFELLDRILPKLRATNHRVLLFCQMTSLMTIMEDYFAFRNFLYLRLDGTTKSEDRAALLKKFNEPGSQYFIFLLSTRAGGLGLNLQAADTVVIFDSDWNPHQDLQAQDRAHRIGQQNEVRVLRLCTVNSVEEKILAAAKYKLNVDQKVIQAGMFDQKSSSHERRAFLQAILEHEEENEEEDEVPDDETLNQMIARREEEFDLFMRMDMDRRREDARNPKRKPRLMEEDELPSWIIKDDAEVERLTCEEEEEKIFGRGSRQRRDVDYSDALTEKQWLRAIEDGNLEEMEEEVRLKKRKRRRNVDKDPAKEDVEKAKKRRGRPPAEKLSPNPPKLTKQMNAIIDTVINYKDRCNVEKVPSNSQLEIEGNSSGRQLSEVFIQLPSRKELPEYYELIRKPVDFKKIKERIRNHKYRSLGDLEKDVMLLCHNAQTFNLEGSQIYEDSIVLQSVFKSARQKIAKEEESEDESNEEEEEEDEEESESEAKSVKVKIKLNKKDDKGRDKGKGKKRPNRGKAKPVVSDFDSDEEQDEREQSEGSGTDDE
T1 sequence (Q86U86 645-766): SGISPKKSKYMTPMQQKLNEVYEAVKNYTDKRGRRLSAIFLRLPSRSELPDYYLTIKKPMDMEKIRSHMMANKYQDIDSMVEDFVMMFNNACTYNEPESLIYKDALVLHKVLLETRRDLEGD
T1 sequence (P40337 54-213): as the sequence (P40337 54-213) above
T1 sequence (Q15369 17-112 partner): as the sequence (Q15369 17-112 partner limits assumed) above
T1 sequence (Q15370 1-104 partner): as the sequence (Q15370 1-104 partner limits assumed) above

As for `Cc1ncsc1-c1ccc([C@H](COC(C)CN2CCC(c3ccc4c(c3)n(C3CCCC3)c3nc(=O)c5c(Br)cccc5n43)CC2)NC(=O)[C@@H]2C[C@@H](O)CN2C(=O)[C@@H](NC(=O)C2(F)CC2)C(C)(C)C)cc1` (stereo partly shown) [compound 9], the solubility at 24 h in “Solubility testing” (pH 4.5, aqueous buffer, pH 4.5, read-out: Solubility pH 4.5) is 14 µg/mL (≈ 13.3 µM); in the data set “Solubility testing” (pH 6.8, aqueous buffer, pH 6.8, read-out: Solubility pH 6.8), below 1 µg/mL. Also, at PBRM1BD5 [1], the EC50 stood at 7 ± 3 nM. Also, the “cooperativity α (PBRM1BD)” value with PBRM1BD5 [2] is 5.5 ± 1.7. In addition, on SMARCA2 (NCI-H1568 (4 h), mean ± SD), the Dmax was found to be 92 ± 8%. The DC50 was 32 ± 17 nM on SMARCA2 (NCI-H1568 (4 h), mean ± SD, read-out: SMARCA2 DC50); 54.9 nM and 24.6 nM and 25.2 nM at SMARCA2 (NCI-H1568, 4h, individual replicates, read-out: NCI-H1568 (4h) SMARCA2 DC50). For the same compound, the Kd in data set [3] (ternary complex with SMARCA2BD, mean ± SD) is 210 ± 83 nM; in data set [3] (ternary, individual replicates) it was 132 nM and 298 nM and 201 nM. For the same compound, in data set [3] (cooperativity, SMARCA2, ratio of KD values measured in the same run), the alpha was 0.2.
